What all share (format): cell-based
In one test the test system is E. coli ATCC 25922. The test can be described thus: double infection imaging in MAC chip, antibiotic susceptibility. Particulars: gentamicin 32 μg/mL, erythromycin 8 μg/mL; 3 h incubation; 2% agarose. Here is the method: (§1) The experimental conditions are as follows: • Strains • E. coli ATCC 25922 (rod-shaped strain) • E. faecalis ATCC 29212 (spherical strain) • Antibiotics • Gentamicin (concentration: 32 μg/mL)
(§2) […] At this time, the coexistence of the rod-shaped bacteria and the spherical bacteria was confirmed. It could also be confirmed whether double infection with the bacteria occurred.

Another test has as its system E. faecalis ATCC 29212. Described as above. Particulars: gentamicin 32 μg/mL, erythromycin 8 μg/mL; 3 h incubation; 2% agarose. As to the method:
as §1, §2

The test system of a further test is E. faecalis strain. The test can be described thus: antibiotic susceptibility testing (MIC) using the MAC chip. Particulars: agarose, 37° C., 4-h incubation. Here is the method: For this experiment, an E. faecalis solution was homogenized with liquid agarose and was injected into the chip. The agarose was gelled at room temperature. Thereafter, liquid penicillin as an antibiotic was injected into the well spaces. The chip was then incubated at an incubator at 37° C. and the results were observed after 4-h incubation.
The MIC of penicillin (2 μg/ml) could be obtained in 4 hours. In contrast, according to micro-dilution testing (MDT), a much longer time (18 hours) was consumed to obtain the MIC of penicillin.

This note sets out measurements from patent US10894941B2, “Microfluidic multi-well-based cell culture testing device” (QUANTA MATRIX CO,. LTD., priority 2013, dated 2021).

For `CC[C@H]1OC(=O)[C@H](C)[C@@H](O[C@H]2C[C@@](C)(OC)[C@@H](O)[C@H](C)O2)[C@H](C)[C@@H](O[C@@H]2O[C@H](C)C[C@H](N(C)C)[C@H]2O)[C@](C)(O)C[C@@H](C)C(=O)[C@H](C)[C@@H](O)[C@]1(C)O` [Erythromycin], the susceptibility entry in the test on E. coli ATCC 25922 and with E. faecalis ATCC 29212 was “Susceptible to E. faecalis ATCC 29212 only” throughout.
For the molecule Gentamicin, the susceptibility result with E. coli ATCC 25922 and with E. faecalis ATCC 29212 was “MICs are in the susceptible range for both strains” each time.
For the molecule penicillin, the MIC (usually the smallest concentration in the dilution series that meets the test's criterion for growth inhibition) with E. faecalis strain came to 2 µg/mL.
